Earlier results, collected in patent publication US8211015B2 (priority 2006, dated 2012).

Settings: in vivo

## CCOC(=O)C1(c2ccccc2)CCN(C)CC1 [meperidine]
  analgesic effect on labor pain: more sedation than actual analgesia

## CN1CC[C@]23c4c5ccc(O)c4O[C@H]2[C@@H](O)C=C[C@H]3[C@H]1C5 [morphine]
  analgesic effect on labor pain: more sedation than actual analgesia
